{"source": "ChEMBL document CHEMBL5620367", "about": "“Discovery of new tetrahydroisoquinolines as potent and selective LSD1 inhibitors for the treatment of MLL-rearranged leukemia” (Eur J Med Chem, 2023)", "key": {"MOLM-13 [1]": {"test_system": "MOLM-13", "test": "Induction of apoptosis in human MOLM-13 cells assessed as early apoptotic cells at 100 uM incubated for 3 days by Annexin V staining based flow cytometry (reference value: 4.94 %)", "type": "functional", "details": "time 3 day"}, "MOLM-13 [2]": {"test_system": "MOLM-13", "test": "Induction of apoptosis in human MOLM-13 cells assessed as late apoptotic cells at 100 uM incubated for 3 days by Annexin V staining based flow cytometry (reference value: 3.29 %)", "type": "functional", "details": "time 3 day"}, "MOLM-13 [3]": {"test_system": "MOLM-13", "test": "Induction of apoptosis in human MOLM-13 cells assessed as necrotic cells at 100 uM incubated for 3 days by Annexin V staining based flow cytometry (reference value: 1.23 %)", "type": "functional", "details": "time 3 day"}, "MV4-11 [4]": {"test_system": "MV4-11", "test": "Induction of apoptosis in human MV4-11 cells assessed as viable cells at 10 uM incubated for 3 days by Annexin V staining based flow cytometry (reference value: 89.63 %)", "type": "functional", "details": "MV4-11, 72 h, time 3 day, read-out: Activity"}, "MV4-11 [5]": {"test_system": "MV4-11", "test": "Induction of apoptosis in human MV4-11 cells assessed as early apoptotic cells at 10 uM incubated for 3 days by Annexin V staining based flow cytometry (reference value: […] %)", "type": "functional", "details": "time 3 day"}, "MV4-11 [6]": {"test_system": "MV4-11", "test": "Induction of apoptosis in human MV4-11 cells assessed as late apoptotic cells at 10 uM incubated for 3 days by Annexin V staining based flow cytometry (reference value: 7.29 %)", "type": "functional", "details": "time 3 day"}, "MV4-11 [7]": {"test_system": "MV4-11", "test": "Induction of apoptosis in human MV4-11 cells assessed as necrotic cells at 10 uM incubated for 3 days by Annexin V staining based flow cytometry (reference value: 2.45 %)", "type": "functional", "details": "time 3 day"}, "MV4-11 [8]": {"test_system": "MV4-11", "test": "Induction of apoptosis in human MV4-11 cells assessed as viable cells at 30 uM incubated for 3 days by Annexin V staining based flow cytometry (reference value: 89.63 %)", "type": "functional", "details": "MV4-11, 72 h, time 3 day, read-out: Activity"}, "MV4-11 [9]": {"test_system": "MV4-11", "test": "Induction of apoptosis in human MV4-11 cells assessed as early apoptotic cells at 30 uM incubated for 3 days by Annexin V staining based flow cytometry (reference value: […] %)", "type": "functional", "details": "time 3 day"}, "MV4-11 [10]": {"test_system": "MV4-11", "test": "Induction of apoptosis in human MV4-11 cells assessed as late apoptotic cells at 30 uM incubated for 3 days by Annexin V staining based flow cytometry (reference value: 7.29 %)", "type": "functional", "details": "time 3 day"}, "MV4-11 [11]": {"test_system": "MV4-11", "test": "Induction of apoptosis in human MV4-11 cells assessed as necrotic cells at 30 uM incubated for 3 days by Annexin V staining based flow cytometry (reference value: 2.45 %)", "type": "functional", "details": "time 3 day"}, "MV4-11 [12]": {"test_system": "MV4-11", "test": "Induction of apoptosis in human MV4-11 cells assessed as viable cells at 100 uM incubated for 3 days by Annexin V staining based flow cytometry (reference value: 89.63 %)", "type": "functional", "details": "MV4-11, 72 h, time 3 day, read-out: Activity"}, "MV4-11 [13]": {"test_system": "MV4-11", "test": "Induction of apoptosis in human MV4-11 cells assessed as early apoptotic cells at 100 uM incubated for 3 days by Annexin V staining based flow cytometry (reference value: […] %)", "type": "functional", "details": "time 3 day"}, "MV4-11 [14]": {"test_system": "MV4-11", "test": "Induction of apoptosis in human MV4-11 cells assessed as late apoptotic cells at 100 uM incubated for 3 days by Annexin V staining based flow cytometry (reference value: 7.29 %)", "type": "functional", "details": "time 3 day"}, "MV4-11 [15]": {"test_system": "MV4-11", "test": "Induction of apoptosis in human MV4-11 cells assessed as necrotic cells at 100 uM incubated for 3 days by Annexin V staining based flow cytometry (reference value: 2.45 %)", "type": "functional", "details": "time 3 day"}, "MOLM-13 [16]": {"test_system": "MOLM-13", "test": "Induction of apoptosis in human MOLM-13 cells assessed as increase in p53 level upto 100 uM incubated for 3 days by Western blot analysis", "type": "functional, cell-based", "details": "time 3.0 day"}, "MV4-11 [17]": {"test_system": "MV4-11", "test": "Induction of apoptosis in human MV4-11 cells assessed as increase in p53 level upto 100 uM incubated for 3 days by Western blot analysis", "type": "functional, cell-based", "details": "time 3.0 day"}, "MV4-11 [18]": {"test_system": "MV4-11", "test": "Antitumor activity against human MV4-11 cells xenografted in NOD-SCID mouse assessed as increase in RBC at 50 to 78.7 mg/kg, sc measured after 33 days", "type": "functional, organism-based", "details": "dose 50-78.7 mg/kg, time 33.0 day"}, "MV4-11 [19]": {"test_system": "MV4-11", "test": "Antitumor activity against human MV4-11 cells xenografted in NOD-SCID mouse assessed as increase in hemoglobin level at 50 to 78.7 mg/kg, sc measured after 33 days", "type": "functional, organism-based", "details": "dose 50-78.7 mg/kg, time 33.0 day"}, "MV4-11 [20]": {"test_system": "MV4-11", "test": "Antitumor activity against human MV4-11 cells xenografted in NOD-SCID mouse assessed as decrease in leukemic cells in spleen at 50 mg/kg, sc measured after 33 days relative to control", "type": "functional", "design": "scale not given: the % may be the effect or the level left", "details": "time 33 day"}, "MV4-11 [21]": {"test_system": "MV4-11", "test": "Antitumor activity against human MV4-11 cells xenografted in NOD-SCID mouse assessed as decrease in leukemic cells in blood at 78.7 mg/kg, sc measured after 33 days relative to control", "type": "functional", "design": "scale not given: the % may be the effect or the level left", "details": "time 33 day"}, "MV4-11 [22]": {"test_system": "MV4-11", "test": "Antitumor activity against human MV4-11 cells xenografted in NOD-SCID mouse assessed as decrease in leukemic cells in spleen at 78.7 mg/kg, sc measured after 33 days relative to control", "type": "functional", "design": "scale not given: the % may be the effect or the level left", "details": "time 33 day"}, "MV4-11 [23]": {"test_system": "MV4-11", "test": "Anti-invasive activity against human MV4-11 cells xenografted in NOD-SCID mouse assessed as reduction in tumor formation in ovarian tissue at 50 mg/kg, sc measured after 33 days", "type": "functional, organism-based", "details": "time 33.0 day"}, "MV4-11 [24]": {"test_system": "MV4-11", "test": "Anti-invasive activity against human MV4-11 cells xenografted in NOD-SCID mouse assessed as reduction in tumor formation in ovarian tissue at 78.7 mg/kg, sc measured after 33 days", "type": "functional, organism-based", "details": "time 33.0 day"}, "[25]": {"test": "Toxicity in NOD-SCID mouse xenografted with human MV4-11 cells assessed as animal survival at 50 to 78.7 mg/kg, sc measured after 33 days", "type": "organism-based", "details": "in vivo, 792 h, dose 50-78.7 mg/kg, time 33 day"}, "[26]": {"test": "Toxicity in NOD-SCID mouse xenografted with human MV4-11 cells assessed as body weight reduction at 50 to 78.7 mg/kg, sc measured after 33 days", "type": "organism-based", "design": "scale not given: the % may be the effect or the level left", "details": "in vivo, 792 h, dose 50-78.7 mg/kg, time 33 day"}, "[27]": {"test": "Toxicity in NOD-SCID mouse xenografted with human MV4-11 cells assessed as hunch-back posture at 50 to 78.7 mg/kg, sc measured after 33 days", "type": "organism-based", "details": "in vivo, 792 h, dose 50-78.7 mg/kg, time 33 day"}, "[28]": {"test": "Toxicity in NOD-SCID mouse xenografted with human MV4-11 cells assessed as change in fur morphology at 50 to 78.7 mg/kg, sc measured after 33 days", "type": "organism-based", "details": "in vivo, 792 h, dose 50-78.7 mg/kg, time 33 day"}}, "note": "Activity calls are given as the source filed them. No cut-off for these calls is given here.", "data": [{"smiles": "O=C(O)C(F)(F)F.O=[N+]([O-])c1ccc(C2NCCc3cc(O)c(O)cc32)cc1", "note": "(stereo not drawn)", "values": [{"measurement": "Activity", "setting": "MOLM-13 [1]", "result": 9.46, "unit": "%"}, {"measurement": "Activity", "setting": "MOLM-13 [2]", "result": 18.07, "unit": "%"}, {"measurement": "Activity", "setting": "MOLM-13 [3]", "result": 16.41, "unit": "%"}, {"measurement": "viability at 10 µM", "setting": "MV4-11 [4]", "result": 66.2, "unit": "%"}, {"measurement": "Activity", "setting": "MV4-11 [5]", "result": 7.06, "unit": "%"}, {"measurement": "Activity", "setting": "MV4-11 [6]", "result": 22.73, "unit": "%"}, {"measurement": "Activity", "setting": "MV4-11 [7]", "result": 4.05, "unit": "%"}, {"measurement": "viability at 30 µM", "setting": "MV4-11 [8]", "result": 57.8, "unit": "%"}, {"measurement": "Activity", "setting": "MV4-11 [9]", "result": 7.75, "unit": "%"}, {"measurement": "Activity", "setting": "MV4-11 [10]", "result": 28.14, "unit": "%"}, {"measurement": "Activity", "setting": "MV4-11 [11]", "result": 6.36, "unit": "%"}, {"measurement": "viability at 100 µM", "setting": "MV4-11 [12]", "result": 49.9, "unit": "%"}, {"measurement": "Activity", "setting": "MV4-11 [13]", "result": 9.09, "unit": "%"}, {"measurement": "Activity", "setting": "MV4-11 [14]", "result": 32.33, "unit": "%"}, {"measurement": "Activity", "setting": "MV4-11 [15]", "result": 15.9, "unit": "%"}, {"measurement": "Activity", "setting": "MOLM-13 [16]", "result": "Active"}, {"measurement": "Activity", "setting": "MV4-11 [17]", "result": "Active"}, {"measurement": "Activity", "setting": "MV4-11 [18]", "result": "Active"}, {"measurement": "Activity", "setting": "MV4-11 [19]", "result": "Active"}, {"measurement": "Activity", "setting": "MV4-11 [20]", "result": 32, "unit": "%"}, {"measurement": "Activity", "setting": "MV4-11 [21]", "result": 81, "unit": "%"}, {"measurement": "Activity", "setting": "MV4-11 [22]", "result": 87, "unit": "%"}, {"measurement": "Activity", "setting": "MV4-11 [23]", "result": "inactive"}, {"measurement": "Activity", "setting": "MV4-11 [24]", "result": "Active"}, {"measurement": "Activity", "setting": "[25]", "result": "Non-Toxic"}, {"measurement": "Activity", "setting": "[26]", "result": "> 20", "unit": "%"}, {"measurement": "Activity", "setting": "[27]", "result": "Toxic"}, {"measurement": "Activity", "setting": "[28]", "result": "Toxic"}]}]}
